For orientation: melting point means the temperature, or range, at which the solid turns liquid.

Molecule `CSc1nnc(C(O)(c2ccc(Cl)cc2)c2ccc3c(c2)c(-c2cccc(Cl)c2)nc2nnnn23)n1C` (stereo not drawn) [Example B28b, 5-(3-chlorophenyl)-α-(4-chlorophenyl)-α-[4-methyl-5-(methylthio)-4H-1,2,4-triazol-3-yl]-tetrazolo[1,5-a]quinazoline-7-methanol] gave a melting point of 65 °C.

Take `Cl.Cn1cncc1C(O)(c1ccc(C(=O)O)cc1)c1ccc2[nH]c(=O)cc(-c3cccc(Cl)c3)c2c1.O` (racemic) (hydrate or solvate): the melting point was more than 300 °C.

Molecule `CC(O)c1ccc(C(O)(c2ccc3c(c2)c(-c2cccc(Cl)c2)cc(=O)n3C)c2cncn2C)cc1` (racemic) [Example B17, (±)-4-(3-chlorophenyl)-6-[hydroxy[4-(1-hydroxyethyl)phenyl](1-methyl-1H-imidazol-5-yl)methyl]-1-methyl-2(1H)-quinolinone] gave a melting point of 181 °C.

`CCOC(=O)c1cn2c(cc(-c3cccc(Cl)c3)c3cc(C(c4ccc(Cl)cc4)c4nncn4C)ccc32)n1` (stereo not drawn) [Example B35, ethyl 5-(3-chlorophenyl)-7-[(4-chlorophenyl)(4-methyl-4H-1,2,4-triazol-3-yl)methyl]-imidazo[1,2-a]quinoline-2-carboxylate] came in with a melting point of 220 °C.

Molecule `Cn1cncc1C(O)(c1ccc(C=O)cc1)c1ccc2c(c1)c(-c1cccc(Cl)c1)nc1nnnn12` (stereo not drawn) [Example B38, 4-[[5-(3-chlorophenyl)tetrazolo[1,5-a]quinazolin-7-yl]hydroxy(1-methyl-1H-imidazol-5-yl)methyl]-benzaldehyde] showed a melting point of 170 °C.

On to `Cn1cnnc1C(c1ccc(Cl)cc1)c1ccc2c(c1)c(-c1cccc(Cl)c1)cc(=O)n2C` (stereo not drawn) [Example B7, 4-(3-chlorophenyl)-6-[(4-chlorophenyl)(4-methyl-4H-1,2,4-triazol-3-yl)methyl]-1-methyl-2(1H)-quinolinone], for which the melting point was found to be 153 °C.

As for `Cn1cncc1C(O)(c1ccc(CO)cc1)c1ccc2c(c1)c(-c1cccc(Cl)c1)cc(=O)n2C` (racemic) [Example B9, (±)-4-(3-chlorophenyl)-6-[hydroxy[4-(hydroxymethyl)phenyl](1-methyl-1H-imidazol-5-yl)methyl]-1-methyl-2(1H)-quinolinone], the melting point was 273 °C.

`Cn1cncc1C(O)(c1cccc(CO)c1)c1ccc2c(c1)c(-c1cccc(Cl)c1)cc(=O)n2C` (stereo not drawn) [Example B45b, 4-(3-chlorophenyl)-6-[hydroxy[3-(hydroxymethyl)phenyl](1-methyl-1H-imidazol-5-yl)methyl]-1-methyl-2(1H)-quinolinone] returned a melting point of 150 °C.

Turning to `Cn1cncc1C(N)(c1ccc([N+](=O)[O-])cc1)c1ccc2c(c1)c(-c1cccc(Cl)c1)cc(=O)n2C` (racemic) [Example B8b, (±)-6-[amino(1-methyl-1H-imidazol-5-yl)(4-nitrophenyl)methyl]-4-(3-chlorophenyl)-1-methyl-2(1H)-quinolinone], the melting point was determined as 258 °C.

The molecule `CC(C)OC(=O)c1cccc(C(O)(c2ccc3c(c2)c(-c2cccc(Cl)c2)cc(=O)n3C)c2cncn2C)c1` (stereo not drawn) [Example B45a, 1-methylethyl 3-[[4-(3-chlorophenyl)-1,2-dihydro-1-methyl-2-oxo-6-quinolinyl]hydroxy(1-methyl-1H-imidazol-5-yl)methyl]-benzoate] displayed a melting point of 150 °C.

As for `Cn1cnnc1C(CCl)(c1ccc(Cl)cc1)c1ccc2c(c1)c(-c1cccc(Cl)c1)cc(=O)n2C` (stereo not drawn) [Example B31, 6-[2-chloro-1-(4-chlorophenyl)-1-(4-methyl-4H-1,2,4-triazol-3-yl)ethyl]-4-(3-chlorophenyl)-1-methyl-2(1H)-quinolinone], the melting point was determined as 260 °C.

Take `Cn1cnnc1C(N)(c1ccc(Cl)cc1)c1ccc2c(c1)c(-c1cccc(Cl)c1)nc1nnnn12` (stereo not drawn) [Example B28e, 5-(3-chlorophenyl)-α-(4-chlorophenyl)-α-(4-methyl-4H-1,2,4-triazol-3-yl)-tetrazolo[1,5-a]quinazoline-7-methanamine]: the melting point was determined as 220 °C.

With `CSc1nnc(C(N)(c2ccc(Cl)cc2)c2ccc3c(c2)c(-c2cccc(Cl)c2)nc2nnnn23)n1C` (stereo not drawn) [Example B28d, 5-(3-chlorophenyl)-α-(4-chlorophenyl)-α-[4-methyl-5-(methylthio)-4H-1,2,4-triazol-3-yl]-tetrazolo[1,5-a]quinazoline-7-methanamine], the melting point turned out to be 150 °C.

`Cn1cnnc1C(N)(c1ccc(C#N)cc1)c1ccc2c(c1)c(-c1cccc(Cl)c1)nc1nnnn12` (stereo not drawn) [Example B29d, 4-[amino[5-(3-chlorophenyl)tetrazolo[1,5-a]quinazolin-7-yl](4-methyl-4H-1,2,4-triazol-3-yl)methyl]-benzonitrile] yielded a melting point of 194 °C.

Consider `Cn1cncc1C(O)(c1ccc(C#N)cc1)c1ccc2c(c1)c(-c1cccc(Cl)c1)cc(=O)n2C` (racemic) [Example B41b, (±)-4-[[4-(3-chlorophenyl)-1,2-dihydro-1-methyl-2-oxo-6-quinolinyl]hydroxy(1-methyl-1H-imidazol-5yl)methyl]benzonitrile], for which the melting point was found to be 210 °C.

`Cn1cnnc1C(O)(c1ccc(Cl)cc1)c1ccc2[nH]c(=O)cc(-c3cccc(Cl)c3)c2c1` (stereo not drawn) [Example B32, 4-(3-chlorophenyl)-6-[(4-chlorophenyl)hydroxy(4-methyl-4H-1,2,4-triazol-3-yl)methyl]-2(1H)-quinolinone] showed a melting point of more than 260 °C.

`Cn1cnnc1C(N)(c1ccc(Cl)cc1)c1ccc2c(c1)c(-c1cccc(Cl)c1)cc(=O)n2C` (stereo not drawn) [Example B22b, 6-[amino(4-chlorophenyl)(4-methyl-4H-1,2,4-triazol-3-yl)methyl]-4-(3-chlorophenyl)-1-methyl-2(1H)-quinolinone]: the melting point amounted to 210 °C.

Regarding `Cn1cncc1C(O)(c1ccc(C(=O)O)cc1)c1ccc2c(c1)c(-c1cccc(Cl)c1)cc(=O)n2C` (racemic) [Example B19, (±)-4-[[4-(3-chlorophenyl)-1,2-dihydro-1-methyl-2-oxo-6-quinolinyl]hydroxy(1-methyl-1H-imidazol-5-yl)methyl]benzoic acid], the melting point is more than 260 °C.

Molecule `Cn1c(=O)cc(-c2cccc(Cl)c2)c2cc(C(N)(c3ccc(Cl)cc3)c3cnccc3Cl)ccc21` (stereo not drawn) [Example B40b, 6-[amino(4-chlorophenyl)(4-chloro-3-pyridinyl)methyl]-4(3-chlorophenyl)-1-methyl-2(1H)-quinolinone] showed a melting point of 180 °C.

Molecule `Cn1cnnc1C(C)(c1ccc(Cl)cc1)c1ccc2c(c1)c(-c1cccc(Cl)c1)cc(=O)n2C.O=C(O)C(=O)O` (stereo not drawn) [Example B34, 4-(3-chlorophenyl)-6-[1-(4-chlorophenyl)-1-(4-methyl-4H-1,2,4-triazol-3-yl)ethyl]-1-methyl-2(1H)-quinolinone ethanedioate (1:1)] had a melting point of 130 °C.

The molecule `Cn1c(=O)cc(-c2cccc(Cl)c2)c2cc(C(O)(c3ccc(Cl)cc3)c3cnccc3Cl)ccc21` (stereo not drawn) [Example B39, 4-(3-chlorophenyl)-6-[(4-chlorophenyl)(4-chloro-3-pyridinyl)hydroxymethyl]-1-methyl-2(1H)-quinolinone] displayed a melting point of 178 °C.

Consider `Cn1cncc1C(O)(c1ccc2c(c1)OCCO2)c1ccc2[nH]c(=O)nc(-c3cccc(Cl)c3)c2c1` (stereo not drawn) [Example B30, 4-(3-chlorophenyl)-6-[(2,3-dihydro-1,4-benzodioxin-6-yl)hydroxy(1-methyl-1H-imidazol-5-yl)methyl]-2(1H)-quinazolinone], for which the melting point is more than 260 °C.

On to `Cn1cnnc1C(c1ccc(Cl)cc1)c1ccc2c(c1)c(-c1cccc(Cl)c1)nc1nnnn12` (stereo not drawn) [Example B20, 5-(3-chlorophenyl)-7-[(4-chlorophenyl)(4methyl-4H-1,2,4-triazol-3-yl)methyl]-tetrazolo[1,5-a]quinazoline], for which the melting point was 217 °C.

Molecule `Cn1cncc1C(N)(c1ccc(CN)cc1)c1ccc2c(c1)c(-c1cccc(Cl)c1)cc(=O)n2C` (stereo not drawn) [Example B41e, 6-[amino[4-(aminomethyl)phenyl](1-methyl-1H-imidazol-5-yl)methyl]-4-(3-chlorophenyl)-1-methyl-2(1H)-quinolinone] displayed a melting point of 150 °C.

For the molecule `Cn1cnnc1C(O)(c1ccc(Cl)cc1)c1ccc2c(c1)c(-c1cccc(Cl)c1)cc(=O)n2Cc1ccc(C#N)cc1` (stereo not drawn) [Example B33, 4-[[4-(3-chlorophenyl)-6-[(4-chlorophenyl)hydroxy(4-methyl-4H-1,2,4-triazol-3-yl)methyl]-2-oxo-1(2H)-quinolinyl]methyl]-benzonitrile], the melting point worked out at 185 °C.

The molecule `Cn1c(=O)cc(-c2cccc(Cl)c2)c2cc(C(O)(c3ccc(Cl)cc3)c3cnccc3N)ccc21` (stereo not drawn) [Example B42, 6-[(4amino-3-pyridinyl)(4-chlorophenyl)hydroxymethyl]-4-(3-chlorophenyl)-1-methyl-2(1H)-quinolinone] came in with a melting point of 262 °C.

As for `Cn1cnnc1C(O)(c1ccc(I)cc1)c1ccc2c(c1)C(c1cccc(Cl)c1)Nc1nnnn1-2` (stereo not drawn) [Example B46, 5-(3-chlorophenyl)-4,5-dihydro-α-(4-iodophenyl)-α-(4-methyl-4H-1,2,4-triazol-3-yl)-tetrazolo[1,5-a]quinazoline-7-methanol], the melting point stood at 201 °C.

On to `Cn1cncc1C(O)(c1ccc(-c2ccc(Cl)cc2)cc1)c1ccc2c(c1)c(-c1cccc(Cl)c1)cc(=O)n2C` (racemic) [Example B10, (±)-6-[(4′-chloro[1,1′-biphenyl]-4-yl)hydroxy(1-methyl-1H-imidazol-5-yl)methyl]-4-(3-chlorophenyl)-1-methyl-2(1H)-quinolinone], for which the melting point was found to be 236 °C.

Consider `Cn1cncc1C(N)(c1ccc(C#N)cc1)c1ccc2c(c1)c(-c1cccc(Cl)c1)cc(=O)n2C` (stereo not drawn) [Example B41d, 4-[amino[4-(3-chlorophenyl)-1,2-dihydro-1-methyl-2-oxo-6quinolinyl](1-methyl-1H-imidazol-5-yl)methyl]-benzonitrile], for which the melting point amounted to 245 °C.

With `Cn1cnnc1C(O)(c1ccc(Cl)cc1)c1ccc2c(c1)c(-c1cccc(Cl)c1)cc(=O)n2C` (stereo not drawn) [Example B13, 4-(3-chlorophenyl)-6-[(4-chlorophenyl)hydroxy(4-methyl-4H-1,2,4-triazol-3-yl)methyl]-1-methyl-2(1H)-quinolinone], the melting point worked out at 182 °C.
